Tested on: Jurkat cells (T-cell leukemia)
Test: Binding of DDC and PI to Jurkat cells treated with CD95, confocal microscopy
Type: cell-based, human
Settings: CD95 for 180 minutes; confocal microscope
Protocol: For microscopic analysis the concentration of cells should be within 1-2×10^7/ml. […] If fixation is needed, it should be performed after DDC staining. • 1. Adjusting the cells to 1-2×10^7/ml in buffer. • 2. Transferring 96 μl from the cell suspension to an eppendorf and staining the cells by adding 4 μl from the DDC solution. Incubating for 10-40 minutes at RT protected from light. • 3. A double labeling could be conducted with PI, if desired. In such a case, 1 μl is added from the PI solution. • 4, Placing the cell suspension on a glass slide. Covering the cells with a glass coverslip. Alternatively, for analyzing adherent cells, cells may grow directly on coverslip. Staining the cells by incubation with DDC (4 μl of DDC/96 μl buffer reaction) or 10-40 minutes and PI (1 μl). […] Observing the cells under fluorescent or confocal microscope equipped with the appropriate UV filter (excitation at 360-370 nm, band pass, and emission at 420 nm, barrier filter. Using a Triple filter (Hoechst/FITC/Texas Red) allows concomitant observation of both DDC and PI. Quantitative Assay for DDC Accumulation using Fluorescene Spectroscopy
Jurkat cells (T-cell leukemia) were treated with CD95 for 180 minutes and incubated with DDC followed by incubation with Propidium Iodide (PI) as detailed in DDC protocols IIIC. The cells were analyzed under fluorescent confocal microscope using a UV filter. […]

## CC[N+](C)(CC)CCC[n+]1c(-c2ccccc2)c2cc(N)ccc2c2ccc(N)cc21.[I-].[I-] [PI, Propidium Iodide, reference compound]
  cellular staining pattern in apoptotic cells: Nuclear staining by PI can be seen only in late apoptotic cells
